Experimental data taken from US10100058B2, “Fused heterocyclic compounds as CaM kinase inhibitors” (Gilead Sciences, Inc., priority 2016, dated 2018).
Like-named read-outs stand apart in the source and are kept apart here.

Target: recombinant CaMKIIδ (Homo sapiens (Human), UniProt Q13557)
Experiment: CaMKIIδ biochemical assay (HTRF)
Method: CaMKIIδ Biochemical Assay
The biochemical activity of recombinant CaMKIIδ was measured by monitoring the phosphorylation of a target peptide using Homogenous Time Resolved Fluorescence (HTRF) technology from CisBio Bioassays.

[1] = 10 pM CaMKIIδ, 110 nM calmodulin, 12 μM ATP, 1 hour, read-out: CAMKIID-HTRF-384V2 (IC50 - nM)

Structure (SMILES) | IC50 [1] [nM] | IC50 (potency against CamKIIδ acquired with in-house assays, reference for selectivity values, read-out: CamKIIδ potency (Table 1)) [nM]
COC1CN(c2cc(C(=O)NC[C@@H]3CCCN3)cc(-c3cnn4ccc(-c5cccs5)nc34)n2)C1 [Example 255, (S)-2-(3-methoxyazetidin-1-yl)-N-(pyrrolidin-2-ylmethyl)-6-(5-(thiophen-2-yl)pyrazolo[1,5-a]pyrimidin-3-yl)isonicotinamide] | 33.9 | –
CCN1CCC[C@H]1CNC(=O)c1cc(-c2cnn3ccc(-c4cccs4)nc23)nc(N2CC(OC)C2)c1 [Example 256, (S)—N-((1-ethylpyrrolidin-2-yl)methyl)-2-(3-methoxyazetidin-1-yl)-6-(5-(thiophen-2-yl)pyrazolo[1,5-a]pyrimidin-3-yl)isonicotinamide] | 2.42 | –
COC1CN(c2cc(C(=O)NC[C@@H]3CCCN3C)cc(-c3cnn4ccc(-c5cccs5)nc34)n2)C1 [Example 257, (S)-2-(3-methoxyazetidin-1-yl)-N-((1-methylpyrrolidin-2-yl)methyl)-6-(5-(thiophen-2-yl)pyrazolo[1,5-a]pyrimidin-3-yl)isonicotinamide] | 284 | –
CCN(CC)CCNC(=O)c1cc(-c2cnn3ccc(-c4cccs4)nc23)nc(N2CC(C)(O)C2)c1 [Example 258, N-(2-(diethylamino)ethyl)-2-(3-hydroxy-3-methylazetidin-1-yl)-6-(5-(thiophen-2-yl)pyrazolo[1,5-a]pyrimidin-3-yl)isonicotinamide] | 1.07 | –
CCN(CC)CCNC(=O)c1cc(NCCO)nc(-c2cnn3ccc(-c4cccs4)nc23)c1 [Example 259, N-(2-(diethylamino)ethyl)-2-((2-hydroxyethyl)amino)-6-(5-(thiophen-2-yl)pyrazolo[1,5-a]pyrimidin-3-yl)isonicotinamide] | 1.02 | –
CCN(CC)c1cc(C(=O)NC[C@H](C)N(CC)CC)cc(-c2cnn3ccc(-c4cccs4)nc23)n1 [Example 260, (S)-2-(diethylamino)-N-(2-(diethylamino)propyl)-6-(5-(thiophen-2-yl)pyrazolo[1,5-a]pyrimidin-3-yl)isonicotinamide] | 1.71 | –
CCNc1cc(C(=O)NC[C@H](C)N(CC)CC)cc(-c2cnn3ccc(-c4cccs4)nc23)n1 [Example 261, (S)—N-(2-(diethylamino)propyl)-2-(ethylamino)-6-(5-(thiophen-2-yl)pyrazolo[1,5-a]pyrimidin-3-yl)isonicotinamide] | 0.54 | –
CCNC(=O)[C@@H]1CCN1c1cc(C(=O)NC[C@H](C)N(CC)CC)cc(-c2cnn3ccc(-c4cccs4)nc23)n1 [Example 276, N—((S)-2-(diethylamino)propyl)-2-((S)-2-(ethylcarbamoyl)azetidin-1-yl)-6-(5-(thiophen-2-yl)pyrazolo[1,5-a]pyrimidin-3-yl)isonicotinamide] | 0.22 | –
CCN(CC)[C@@H](C)CNC(=O)c1cc(-c2cnn3ccc(-c4cccs4)nc23)nc(N2CC[C@H]2C(=O)NC2CC2)c1 [Example 277, 2-((S)-2-(cyclopropylcarbamoyl)azetidin-1-yl)-N—((S)-2-(diethylamino)propyl)-6-(5-(thiophen-2-yl)pyrazolo[1,5-a]pyrimidin-3-yl)isonicotinamide] | 0.51 | –
CCN(CC)[C@@H](C)CNC(=O)c1cc(-c2cnn3ccc(-c4cccs4)nc23)nc(N2CC[C@H]2C(=O)NCC2CC2)c1 [Example 278, 2-((S)-2-((cyclopropylmethyl)carbamoyl)azetidin-1-yl)-N—((S)-2-(diethylamino)propyl)-6-(5-(thiophen-2-yl)pyrazolo[1,5-a]pyrimidin-3-yl)isonicotinamide] | 0.41 | –
CCN(CC)C(=O)[C@@H]1CCN1c1cc(C(=O)NC[C@H](C)N(CC)CC)cc(-c2cnn3ccc(-c4cccs4)nc23)n1 [Example 280, N—((S)-2-(diethylamino)propyl)-2-((S)-2-(diethylcarbamoyl)azetidin-1-yl)-6-(5-(thiophen-2-yl)pyrazolo[1,5-a]pyrimidin-3-yl)isonicotinamide] | 0.45 | –
CCN(CC)[C@@H](C)CNC(=O)c1cc(-c2cnn3ccc(-c4cccs4)nc23)nc(N2CC[C@H]2C(=O)NCCF)c1 [Example 281, N—((S)-2-(diethylamino)propyl)-2-((S)-2-((2-fluoroethyl)carbamoyl)azetidin-1-yl)-6-(5-(thiophen-2-yl)pyrazolo[1,5-a]pyrimidin-3-yl)isonicotinamide] | 0.46 | –

Continued, values first:

IC50 [1] [nM] | IC50 (potency against CamKIIδ acquired with in-house assays, reference for selectivity values, read-out: CamKIIδ potency (Table 1)) [nM] | Structure (SMILES)
6.97 | – | CCN(CC)[C@@H](C)CNC(=O)c1cc(-c2cnn3ccc(-c4ccncc4)nc23)nc(N2CC(OC)C2)c1 [Example 262, (S)—N-(2-(diethylamino)propyl)-2-(3-methoxyazetidin-1-yl)-6-(5-(pyridin-4-yl)pyrazolo[1,5-a]pyrimidin-3-yl)isonicotinamide]
0.51 | – | CCN(CC)[C@@H](C)CNC(=O)c1cc(-c2cnn3ccc(-c4cccs4)nc23)nc(N2CCC(C(N)=O)CC2)c1 [Example 263, (S)-2-(4-carbamoylpiperidin-1-yl)-N-(2-(diethylamino)propyl)-6-(5-(thiophen-2-yl)pyrazolo[1,5-a]pyrimidin-3-yl)isonicotinamide]
0.2 | – | CCN(CC)[C@@H](C)CNC(=O)c1cc(-c2cnn3ccc(-c4cccs4)nc23)nc(N2CCO[C@H](CO)C2)c1 [Example 264, N—((S)-2-(diethylamino)propyl)-2-((S)-2-(hydroxymethyl)morpholino)-6-(5-(thiophen-2-yl)pyrazolo[1,5-a]pyrimidin-3-yl)isonicotinamide]
0.42 | – | CCN(CC)[C@@H](C)CNC(=O)c1cc(-c2cnn3ccc(-c4cccs4)nc23)nc(N2CC[C@H]2COC)c1 [Example 265, N—((S)-2-(diethylamino)propyl)-2-((S)-2-(methoxymethyl)azetidin-1-yl)-6-(5-(thiophen-2-yl)pyrazolo[1,5-a]pyrimidin-3-yl)isonicotinamide]
0.46 | – | CCN(CC)[C@@H](C)CNC(=O)c1cc(-c2cnn3ccc(-c4cccs4)nc23)nc(N2CC[C@@H]2COC)c1 [Example 266, N—((S)-2-(diethylamino)propyl)-2-((R)-2-(methoxymethyl)azetidin-1-yl)-6-(5-(thiophen-2-yl)pyrazolo[1,5-a]pyrimidin-3-yl)isonicotinamide]
0.28 | – | CCN(CC)[C@@H](C)CNC(=O)c1cc(-c2cnn3ccc(-c4cccs4)nc23)nc(N2CC[C@@H]2CO)c1 [Example 267, N—((S)-2-(diethylamino)propyl)-2-((R)-2-(hydroxymethyl)azetidin-1-yl)-6-(5-(thiophen-2-yl)pyrazolo[1,5-a]pyrimidin-3-yl)isonicotinamide]
0.06 | – | CCN(CC)[C@@H](C)CNC(=O)c1cc(-c2cnn3ccc(-c4cccs4)nc23)nc(N2CC[C@H]2CO)c1 [Example 268, N—((S)-2-(diethylamino)propyl)-2-((S)-2-(hydroxymethyl)azetidin-1-yl)-6-(5-(thiophen-2-yl)pyrazolo[1,5-a]pyrimidin-3-yl)isonicotinamide]
6.05 | – | CCN(CC)[C@@H](C)CNC(=O)c1cc(-c2cnn3ccc(-c4cccs4)nc23)nc(N2CCC[C@@H]2C(N)=O)c1 [Example 269, 2-((R)-2-carbamoylpyrrolidin-1-yl)-N—((S)-2-(diethylamino)propyl)-6-(5-(thiophen-2-yl)pyrazolo[1,5-a]pyrimidin-3-yl)isonicotinamide]
1.91 | – | CCN(CC)[C@@H](C)CNC(=O)c1cc(-c2cnn3ccc(-c4cccs4)nc23)nc(N2CCC[C@H]2C(N)=O)c1 [Example 270, 2-((S)-2-carbamoylpyrrolidin-1-yl)-N—((S)-2-(diethylamino)propyl)-6-(5-(thiophen-2-yl)pyrazolo[1,5-a]pyrimidin-3-yl)isonicotinamide]
0.31 | – | CCN(CC)[C@@H](C)CNC(=O)c1cc(-c2cnn3ccc(-c4cccs4)nc23)nc(N2CCC[C@H]2CO)c1 [Example 271, N—((S)-2-(diethylamino)propyl)-2-((S)-2-(hydroxymethyl)pyrrolidin-1-yl)-6-(5-(thiophen-2-yl)pyrazolo[1,5-a]pyrimidin-3-yl)isonicotinamide]
0.14 | – | CCN(CC)[C@@H](C)CNC(=O)c1cc(-c2cnn3ccc(-c4cccs4)nc23)nc(N2CCC[C@@H]2CO)c1 [Example 272, N—((S)-2-(diethylamino)propyl)-2-((R)-2-(hydroxymethyl)pyrrolidin-1-yl)-6-(5-(thiophen-2-yl)pyrazolo[1,5-a]pyrimidin-3-yl)isonicotinamide]
1.43 | – | CCN(CC)[C@@H](C)CNC(=O)c1cc(-c2cnn3ccc(-c4cccs4)nc23)nc(N2CCC[C@@H]2COC)c1 [Example 273, N—((S)-2-(diethylamino)propyl)-2-((R)-2-(methoxymethyl)pyrrolidin-1-yl)-6-(5-(thiophen-2-yl)pyrazolo[1,5-a]pyrimidin-3-yl)isonicotinamide]
0.63 | – | CCN(CC)[C@@H](C)CNC(=O)c1cc(-c2cnn3ccc(-c4cccs4)nc23)nc(N2CCC[C@H]2COC)c1 [Example 274, N—((S)-2-(diethylamino)propyl)-2-((S)-2-(methoxymethyl)pyrrolidin-1-yl)-6-(5-(thiophen-2-yl)pyrazolo[1,5-a]pyrimidin-3-yl)isonicotinamide]
0.2 | 0.43 | CCN(CC)[C@@H](C)CNC(=O)c1cc(-c2cnn3ccc(-c4cccs4)nc23)nc(N2CC[C@H]2C(=O)NC)c1 [Example 275, N—((S)-2-(diethylamino)propyl)-2-((S)-2-(methylcarbamoyl)azetidin-1-yl)-6-(5-(thiophen-2-yl)pyrazolo[1,5-a]pyrimidin-3-yl)isonicotinamide]
0.17 | – | CCN(CC)[C@@H](C)CNC(=O)c1cc(-c2cnn3ccc(-c4cccs4)nc23)nc(N2CC[C@H]2C(=O)N(C)C)c1 [Example 279, N—((S)-2-(diethylamino)propyl)-2-((S)-2-(dimethylcarbamoyl)azetidin-1-yl)-6-(5-(thiophen-2-yl)pyrazolo[1,5-a]pyrimidin-3-yl)isonicotinamide]
